# Measurements from ChEMBL document CHEMBL1135619, “Cyclosporins: structure-activity relationships for the inhibition of the human MDR1 P-glycoprotein ABC transporter” (J Med Chem, 2002).
# Where a SMILES comes first, the peptide text is derived from it. [ ]: non-standard residue; d: D form. NMeBmt(8-OH) = CN[C@H](C(=O)O)[C@H](O)[C@H](C)C/C=C/CO; MeBmt = C/C=C/C[C@@H](C)[C@@H](O)[C@H](NC)C(=O)O; Val(2S-OH) = CC(C)[C@](N)(O)C(=O)O; NMeL = CN[C@@H](CC(C)C)C(=O)O; NMeV = CN[C@H](C(=O)O)C(C)C; Sar = CNCC(=O)O
# Molecular target: ATP-dependent translocase ABCB1 (Homo sapiens, UniProt P08183)
# Sequence (P08183 whole entry): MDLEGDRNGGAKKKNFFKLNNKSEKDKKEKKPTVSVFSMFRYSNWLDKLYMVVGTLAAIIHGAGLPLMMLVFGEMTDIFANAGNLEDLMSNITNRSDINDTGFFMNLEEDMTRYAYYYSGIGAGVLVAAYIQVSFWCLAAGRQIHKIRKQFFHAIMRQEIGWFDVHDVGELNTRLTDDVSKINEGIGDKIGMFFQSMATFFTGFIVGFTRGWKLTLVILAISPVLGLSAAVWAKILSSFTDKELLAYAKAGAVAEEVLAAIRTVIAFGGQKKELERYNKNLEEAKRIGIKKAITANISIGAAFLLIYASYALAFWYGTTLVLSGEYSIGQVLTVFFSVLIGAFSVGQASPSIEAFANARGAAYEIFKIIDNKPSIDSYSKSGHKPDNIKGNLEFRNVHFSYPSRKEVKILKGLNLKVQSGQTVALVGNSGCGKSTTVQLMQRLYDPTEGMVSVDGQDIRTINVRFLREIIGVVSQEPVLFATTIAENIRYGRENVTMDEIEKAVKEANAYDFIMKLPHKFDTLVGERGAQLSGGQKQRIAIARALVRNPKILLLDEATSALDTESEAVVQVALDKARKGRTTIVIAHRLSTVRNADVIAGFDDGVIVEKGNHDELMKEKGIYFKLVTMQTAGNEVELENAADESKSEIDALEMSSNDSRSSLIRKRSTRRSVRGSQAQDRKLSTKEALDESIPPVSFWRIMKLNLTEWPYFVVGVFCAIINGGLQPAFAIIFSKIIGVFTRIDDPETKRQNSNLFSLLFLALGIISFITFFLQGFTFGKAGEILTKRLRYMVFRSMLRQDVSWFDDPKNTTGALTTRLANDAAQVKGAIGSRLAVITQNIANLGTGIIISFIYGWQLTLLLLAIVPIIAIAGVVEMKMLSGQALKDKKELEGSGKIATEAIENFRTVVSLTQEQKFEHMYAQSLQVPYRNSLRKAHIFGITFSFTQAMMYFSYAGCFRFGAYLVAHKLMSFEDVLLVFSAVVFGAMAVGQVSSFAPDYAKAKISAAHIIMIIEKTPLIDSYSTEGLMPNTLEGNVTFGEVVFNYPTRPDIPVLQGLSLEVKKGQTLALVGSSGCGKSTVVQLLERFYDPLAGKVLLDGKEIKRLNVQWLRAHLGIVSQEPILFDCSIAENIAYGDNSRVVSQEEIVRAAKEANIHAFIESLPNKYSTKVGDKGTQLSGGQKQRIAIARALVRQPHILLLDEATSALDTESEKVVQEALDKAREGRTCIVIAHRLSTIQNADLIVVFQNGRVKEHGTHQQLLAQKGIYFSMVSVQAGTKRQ
# Test: (§1) Inhibitory activity against Human MDR1 P-Glycoprotein ABC Transporter using leukemia CEM cells
# Details: not given
row,SMILES,IC50 [µM]
1,C/C=C/C[C@@H](C)[C@@H](O)[C@H]1C(=O)N[C@@H]([C@@H](C)O)C(=O)N(C)CC(=O)N(C)[C@@H](CC(C)C)C(=O)N[C@@H](CC(C)C)C(=O)N(C)[C@@H](CC(C)C)C(=O)N[C@@H](C)C(=O)N[C@H](C)C(=O)N(C)[C@@H](CC(C)C)C(=O)N[C@@H](C)C(=O)N(C)[C@@H](C(C)C)C(=O)N1C (cyclo(A[NMeV][MeBmt]T[Sar][NMeL]L[NMeL]A[dA][NMeL])),56
2,C/C=C/C[C@@H](C)[C@@H](O)[C@H]1C(=O)N[C@@H]([C@@H](C)O)C(=O)N(C)CC(=O)N[C@@H](CC(C)C)C(=O)N[C@@H](CC(C)C)C(=O)N(C)[C@@H](CC(C)C)C(=O)N[C@@H](C)C(=O)N[C@](O)(C(C)C)C(=O)N(C)[C@@H](CC(C)C)C(=O)N[C@@H](CC(C)C)C(=O)N(C)[C@@H](C(C)C)C(=O)N1C (cyclo(A[Val(2S-OH)][NMeL]L[NMeV][MeBmt]T[Sar]LL[NMeL])),4.3
3,C/C=C/C[C@@H](C)[C@@H](O)[C@H]1C(=O)N[C@@H]([C@@H](C)O)C(=O)N(C)CC(=O)N(C)[C@@H](CC(C)C)C(=O)N[C@@H](C(C)C)C(=O)N(C)[C@@H](CC(C)C)C(=O)N[C@@H](C)C(=O)N[C@](O)(C(C)C)C(=O)N(C)[C@@H](CC(C)C)C(=O)N[C@@H](CC(C)C)C(=O)N(C)[C@@H](C(C)C)C(=O)N1C (cyclo(A[Val(2S-OH)][NMeL]L[NMeV][MeBmt]T[Sar][NMeL]V[NMeL])),2.1
4,C/C=C/C[C@@H](C)[C@@H](O)[C@H]1C(=O)N[C@@H]([C@@H](C)O)C(=O)N(C)CC(=O)N(C)[C@@H](CC(C)C)C(=O)N[C@@H](CC(C)C)C(=O)N(C)[C@@H](CC(C)C)C(=O)N[C@@H](C)C(=O)N[C@](O)(C(C)C)C(=O)N(C)[C@@H](CC(C)C)C(=O)N[C@@H](CC(C)C)C(=O)N(C)[C@@H](C(C)C)C(=O)N1C (cyclo(A[Val(2S-OH)][NMeL]L[NMeV][MeBmt]T[Sar][NMeL]L[NMeL])),1.6
5,C/C=C/C[C@@H](C)[C@@H](O)[C@H]1C(=O)N[C@@H](CC)C(=O)NCC(=O)N(C)[C@@H](CC(C)C)C(=O)N[C@@H](C(C)C)C(=O)N(C)[C@@H](CC(C)C)C(=O)N[C@@H](C)C(=O)N[C@H](CO)C(=O)N(C)[C@@H](CC(C)C)C(=O)N(C)[C@@H](CC(C)C)C(=O)N(C)[C@@H](C(C)C)C(=O)N1C,> 30
6,C/C=C/C[C@@H](C)[C@@H](O)[C@H]1C(=O)N[C@@H]([C@@H](C)O)C(=O)NCC(=O)N(C)[C@@H](CC(C)C)C(=O)N[C@@H](CC(C)C)C(=O)N(C)[C@@H](CC(C)C)C(=O)N[C@@H](C)C(=O)N[C@](O)(C(C)C)C(=O)N(C)[C@@H](CC(C)C)C(=O)N[C@@H](CC(C)C)C(=O)N(C)[C@@H](C(C)C)C(=O)N1C (cyclo(A[Val(2S-OH)][NMeL]L[NMeV][MeBmt]TG[NMeL]L[NMeL])),4

# The remaining lines, values ahead:
row,IC50 [µM],SMILES
1,4,CCCCCC[C@H]1C(=O)N[C@@H](CC)C(=O)N(C)CC(=O)N(C)[C@@H](CC(C)C)C(=O)N[C@@H](C(C)C)C(=O)N(C)[C@@H](CC(C)C)C(=O)N[C@@H](C)C(=O)N[C@H](C)C(=O)N(C)[C@@H](CC(C)C)C(=O)N(C)[C@@H](CC(C)C)C(=O)N(C)[C@@H](C(C)C)C(=O)N1C
2,6,C/C=C/C[C@@H](C)[C@@H](O)[C@H]1C(=O)N[C@@H]([C@@H](C)O)C(=O)N(C)CC(=O)N(C)[C@@H](CC(C)C)C(=O)N[C@@H](CC(C)C)C(=O)N(C)[C@@H](CC(C)C)C(=O)N[C@@H](C)C(=O)N[C@H](C)C(=O)N(C)[C@@H](CC(C)C)C(=O)N[C@@H](CC(C)C)C(=O)N(C)[C@@H](C(C)C)C(=O)N1C (cyclo(A[dA][NMeL]L[NMeV][MeBmt]T[Sar][NMeL]L[NMeL]))
3,8.1,CC[C@@H]1NC(=O)[C@H](CC2CCCCC2)N(C)C(=O)[C@H](C(C)C)N(C)C(=O)[C@H](CC(C)C)N(C)C(=O)[C@H](CC(C)C)N(C)C(=O)[C@@H](C)NC(=O)[C@H](C)NC(=O)[C@H](CC(C)C)N(C)C(=O)[C@H](C(C)C)NC(=O)[C@H](CC(C)C)N(C)C(=O)CN(C)C1=O
4,3.5,C/C=C/C[C@@H](C)[C@@H](O)[C@H]1C(=O)N[C@@H](CC)C(=O)N2CCC[C@@H]2C(=O)N(C)[C@@H](CC(C)C)C(=O)N[C@@H](C(C)C)C(=O)N(C)[C@@H](CC(C)C)C(=O)N[C@@H](C)C(=O)N[C@H](C)C(=O)N(C)[C@@H](CC(C)C)C(=O)N(C)[C@@H](CC(C)C)C(=O)N(C)[C@@H](C(C)C)C(=O)N1C
5,5.2,C/C=C/C[C@@H](C)[C@@H](O)[C@H]1C(=O)N[C@@H](CC)C(=O)N2CCC[C@H]2C(=O)N(C)[C@@H](CC(C)C)C(=O)N[C@@H](C(C)C)C(=O)N(C)[C@@H](CC(C)C)C(=O)N[C@@H](C)C(=O)N[C@H](C)C(=O)N(C)[C@@H](CC(C)C)C(=O)N(C)[C@@H](CC(C)C)C(=O)N(C)[C@@H](C(C)C)C(=O)N1C
6,2.2,C/C=C/C[C@@H](C)C[C@H]1C(=O)N[C@@H](CC)C(=O)N(C)CC(=O)N(C)[C@@H](CC(C)C)C(=O)N[C@@H](C(C)C)C(=O)N(C)[C@@H](CC(C)C)C(=O)N[C@@H](C)C(=O)N[C@H](C)C(=O)N(C)[C@@H](CC(C)C)C(=O)N(C)[C@@H](CC(C)C)C(=O)N(C)[C@@H](C(C)C)C(=O)N1C
7,> 100,C/C=C/C[C@@H](C)[C@@H](O)[C@H]1C(=O)N[C@@H]([C@@H](C)O)C(=O)N(C)CC(=O)N[C@@H](C(C)C)C(=O)N[C@@H](C(C)C)C(=O)N(C)[C@@H](CC(C)C)C(=O)N[C@@H](C)C(=O)N[C@H](C)C(=O)N(C)[C@@H](CC(C)C)C(=O)N(C)[C@@H](CC(C)C)C(=O)N(C)[C@@H](C(C)C)C(=O)N1C
8,7,CC(C)C[C@H]1C(=O)N[C@@H](C(C)C)C(=O)N(C)[C@@H](CC(C)C)C(=O)N[C@@H](C)C(=O)N[C@H](C)C(=O)N(C)[C@@H](CC(C)C)C(=O)N(C)[C@@H](CC(C)C)C(=O)N(C)[C@@H](C(C)C)C(=O)N(C)[C@@H](CC(C)C)C(=O)N[C@@H](C(C)C)C(=O)N(C)CC(=O)N1C (cyclo(A[dA][NMeL][NMeL][NMeV][NMeL]V[Sar][NMeL]V[NMeL]))

# Molecular target: MDR1 P-glycoprotein (ABCB1) (Homo sapiens, UniProt P08183)
# Sequence (P08183 whole entry): as above
# Test: as §1
# Details: human, leukemia CEM cells
row,SMILES,IC50 [µM]
1,CC/C=C/C[C@@H](C)[C@@H](O)[C@H]1C(=O)N[C@@H](CC)C(=O)N(C)[C@@H](Cc2ccccc2)C(=O)N(C)[C@H](CC(C)C)C(=O)N[C@H](C(C)C)C(=O)N(C)[C@H](CC(C)C)C(=O)N[C@@H](C)C(=O)N[C@H](C)C(=O)N(C)[C@@H](CC(C)C)C(=O)N(C)[C@@H](CC(C)C)C(=O)N(C)[C@@H](C(C)C)C(=O)N1C,1.5
2,C/C=C/C[C@@H](C)[C@@H](O)[C@H]1C(=O)N[C@@H]([C@@H](C)O)C(=O)N(C)CC(=O)N(C)[C@@H](CC(C)C)C(=O)N[C@@H]([C@@H](C)CC)C(=O)N(C)[C@@H](CC(C)C)C(=O)N[C@@H](C)C(=O)N[C@](O)(C(C)C)C(=O)N(C)[C@@H](CC(C)C)C(=O)N[C@@H](CC(C)C)C(=O)N(C)[C@@H](C(C)C)C(=O)N1C (cyclo(A[Val(2S-OH)][NMeL]L[NMeV][MeBmt]T[Sar][NMeL]I[NMeL])),1.6
3,CC(C)C[C@@H]1NC(=O)[C@H](CC(C)C)N(C)C(=O)[C@@](O)(C(C)C)NC(=O)[C@H](C)NC(=O)[C@H](CC(C)C)N(C)C(=O)[C@H](CC(C)C)NC(=O)[C@H](CC(C)C)N(C)C(=O)CN(C)C(=O)[C@H]([C@@H](C)O)NC(=O)[C@H]([C@H](O)[C@H](C)C/C=C/CO)N(C)C(=O)[C@H](C(C)C)N(C)C1=O (cyclo(A[Val(2S-OH)][NMeL]L[NMeV][NMeBmt(8-OH)]T[Sar][NMeL]L[NMeL])),15.8

# Second part, the molecule after the results:
row,IC50 [µM],SMILES
1,13.1,CC[C@@H]1NC(=O)[C@H](C2CCCCC2C)N(C)C(=O)[C@H](C(C)C)N(C)C(=O)[C@H](CC(C)C)N(C)C(=O)[C@H](CC(C)C)N(C)C(=O)[C@@H](C)NC(=O)[C@H](C)NC(=O)[C@H](CC(C)C)N(C)C(=O)[C@H](C(C)C)NC(=O)[C@H](CC(C)C)N(C)C(=O)CN(C)C1=O (some centres undefined)
2,17,C/C=C/C[C@@H](C)[C@@H](O)C1NC(=O)[C@H](C(C)C)N(C)C(=O)[C@H](CC(C)C)N(C)C(=O)[C@H](CC(C)C)N(C)C(=O)[C@@H](C)NC(=O)[C@H](C)NC(=O)[C@@H](CC(C)C)N(C)C(=O)[C@@H](C(C)C)NC(=O)[C@@H](CC(C)C)N(C)C(=O)CN(C)C(=O)[C@H]([C@@H](C)O)NC1=O (some centres undefined)
